In brackets after ≈: the same amount, converted by molar mass. Entries after “also recorded” stand apart in the source; their conditions may differ. Like-named read-outs stand apart in the source and are kept apart here. Marks after values point to notes of the source that are not given here.

Consider five molecules from patent US6913895B1, “Methods for assaying transglycosylase reactions, and for identifying inhibitors thereof” (Advanced Medicine East, Inc., priority 1999, dated 2005).

One test has as its system lipid II formation. The experiment in a line: Lipid II formation assay in bacterial membranes. Conditions: for inhibition of lipid II formation: inhibitors added with labeled UDP-GlcNAc and UDP-MurNAc-tetrapeptide (data not shown). Type of test: biochemical, E. coli.
For test [1], the system named is transglycosylase. The experiment in a line: Transglycosylase assay: peptidoglycan formation from lipid II accumulated in situ in bacterial membranes. Type of test: biochemical, E. coli. Conditions: UDP-MurNAc-tetrapeptide substrate, inhibitors added after Triton X-100 removal, 2 hour incubation.
The next test deals with S. aureus 29213. Type of test: cell-based.
A further test concerns E. faecalis 29212. Type of test: cell-based.
Test [2] relates to E. faecalis CL4877 (VanB). Type of test: cell-based.
The subject of a further test is E. faecium 49624. Type of test: cell-based.
For a further test, the system named is E. faecium CL4931 (VanA). The test is classed as cell-based.
The test system of test [3] is transglycosylase. The experiment in a line: Transglycosylase assay: peptidoglycan formation from lipid II accumulated in situ in bacterial membranes. The test is classed as biochemical, E. coli. Particulars: for inhibition of peptidoglycan formation: inhibitor added after formation of lipid II, Triton X-100 removed, 2 hours incubation, paper chromatography. How it is done: Reactions were performed in the following buffer: 50 mM Tris (pH=8.0), 42 mM MgAc, 208 mM KCl, and 0.1% Triton X-100®. Each reaction was performed in a 50 ul reaction volume, containing 25 μg French Pressed bacterial membranes, 0.5 nmoles biotinylated UDP-MurNAc-pentapeptide 10% DMSO final concentration (added in conjunction with inhibitor), and 0.5 uM 14C-GlcNAc (≈20,000 CPM). All components except 14C-GlcNAc were pre-incubated together for 10 min at room temperature. The reactions were incubated an additional 1 hour after addition of ^14C-GlcNAc.
To make the reaction volume more manageable, the Triton was removed with the addition of Detergent-Out resin (Geno-Technology, St. Louis, Mo.). After binding up the inhibiting detergent, the reaction was further incubated for 2 hours to allow for transglycosylation to proceed.
The above-described methods of the invention were used to analyze the activity of three inhibitors. The assay included separate samples of tunicamycin, moenomycin, or bacitracin in various concentrations. These inhibitors were added to their respective samples after formation of lipid II, with the subsequent removal of the transglycosylation blocker Triton X-100®. After 2 hours incubation, aliquots of the solubilized products were analyzed by ascending paper chromatography. The amount of lipid II converted into peptidoglycan is represented by the amount of radioactivity measured in CPM remaining at the origin for each reaction.
Compounds TS0517 (chlorobiphenyl-vancomycin), TS0518 (chlorobiphenyl-desleucyl-vancomycin), TS0523, TS1017, and TS30663 were all assayed using the above-described assay, in which the inhibitors were added to their respective samples after formation of lipid II, with the subsequent removal of Triton X-100®. After 2 hours incubation, aliquots of the solubilized products were analyzed by ascending paper chromatography.

The test system of another test is peptidoglycan synthesis. Conditions: at 100 μg/ml, A. viridens membranes; cited from earlier work.
Where [4] appears, read: S. aureus 29213, vancomycin-sensitive.
[5] abbreviates: E. faecalis 29212, vancomycin-sensitive.
The mark [6] stands for this setting: E. faecalis CL4877 (VanB), vancomycin resistant.
Setting [7] is: E. faecium 49624, vancomycin-sensitive.
The mark [8] stands for this setting: E. faecium CL4931 (VanA), vancomycin resistant.

From the text for lipid II formation: In order to determine which stage the inhibitor is affecting, the inhibitor may be added to the reaction mixture while a transglycosylation blocker is present. Accumulation of labeled lipid II may then be measured. […] If lipid II does accumulate, the detergent may be removed, thereby allowing the transglycosylation step to proceed. Labeled peptidoglycan may then be measured.
The methods of the invention as described employ membranes isolated from E. coli as the source of enzymes both for the formation of lipid II, and for the subsequent formation of peptidoglycan.

Consider `C[C@@H]1O[C@@H](O[C@H]2[C@H](Oc3c4cc5cc3Oc3ccc(cc3Cl)[C@@H](O)[C@@H](N)C(=O)N[C@@H](CC(N)=O)C(=O)N[C@H]5C(=O)NC3C(=O)NC(C(=O)N[C@H](C(=O)O)c5cc(O)cc(O)c5-c5cc3ccc5O)[C@H](O)c3ccc(c(Cl)c3)O4)O[C@H](CO)[C@@H](O)[C@@H]2O)C[C@](C)(NCc2ccc(-c3ccc(Cl)cc3)cc2)[C@@H]1O` (mixture of isomers) [CBP-dl-vancomycin, chlorobiphenyl-desleucyl-vancomycin], for which, in the test with lipid II formation, the “inhibition of lipid II formation” value is “no inhibition of lipid II formation”. For the same molecule, the “inhibition of peptidoglycan synthesis” value in the test with transglycosylase [1] was “far more effective”. Moreover, the MIC with S. aureus 29213 (setting [4]) came out at 3.12 µg/mL (≈ 2.05 µM); against E. faecalis 29212 (setting [5]) it was 3.12 µg/mL (≈ 2.05 µM); in test [2] (setting [6]), 25 µg/mL (≈ 16.4 µM); with E. faecium 49624 (setting [7]) it was 1.56 µg/mL (≈ 1.02 µM); in the test with E. faecium CL4931 (VanA) (setting [8]), 12.5 µg/mL (≈ 8.21 µM). In addition, the “inhibition of peptidoglycan formation” value in the test on transglycosylase [3] was “showed inhibition of peptidoglycan formation”.

On to `CN[C@H](CC(C)C)C(=O)N[C@H]1C(=O)N[C@@H](CC(N)=O)C(=O)N[C@H]2C(=O)N[C@H]3C(=O)N[C@H](C(=O)N[C@H](C(=O)O)c4cc(O)cc(O)c4-c4cc3ccc4O)[C@H](O)c3ccc(c(Cl)c3)Oc3cc2cc(c3O[C@@H]2O[C@H](CO)[C@@H](O)[C@H](O)[C@H]2O[C@H]2C[C@](C)(NCc3ccc(-c4ccc(Cl)cc4)cc3)[C@H](O)[C@H](C)O2)Oc2ccc(cc2Cl)[C@H]1O` [CBP-vancomycin, chlorobiphenyl-vancomycin], for which the “inhibition of lipid II formation” value in the test with lipid II formation is listed as “no inhibition of lipid II formation”. In the test on transglycosylase [1], the “inhibition of peptidoglycan synthesis” value was “far more effective”. In addition, the MIC against S. aureus 29213 (setting [4]) was 0.25 µg/mL (≈ 0.152 µM); with E. faecalis 29212 (setting [5]), 0.25 µg/mL (≈ 0.152 µM); in [2] (setting [6]), 12.5 µg/mL (≈ 7.58 µM); in the test with E. faecium 49624 (setting [7]), 0.062 µg/mL (≈ 0.0376 µM); against E. faecium CL4931 (VanA) (setting [8]), 12.5 µg/mL (≈ 7.58 µM). The “inhibition of peptidoglycan formation” value in the test on transglycosylase [3] was “showed inhibition of peptidoglycan formation”.

`CN[C@H](CC(C)C)C(=O)N[C@H]1C(=O)N[C@@H](CC(N)=O)C(=O)N[C@H]2C(=O)N[C@H]3C(=O)N[C@H](C(=O)N[C@H](C(=O)O)c4cc(O)cc(O)c4-c4cc3ccc4O)[C@H](O)c3ccc(c(Cl)c3)Oc3cc2cc(c3O[C@@H]2O[C@H](CO)[C@@H](O)[C@H](O)[C@H]2O[C@H]2C[C@](C)(N)[C@H](O)[C@H](C)O2)Oc2ccc(cc2Cl)[C@H]1O` [Vancomycin, vancomycin]: the “inhibition of lipid II formation in vitro” value with lipid II formation (substrate with D-ala-D-ala dipeptide moiety) is recorded as “capable of inhibiting the formation of lipid II in vitro”. Moreover, the “inhibition of peptidoglycan synthesis” value with transglycosylase [1] is listed as “only minimal inhibition”. Also, the minimum inhibitory concentration (MIC) in the test on S. aureus 29213 (Staphylococcus aureus, 29213) stood at 1.25 µg/mL (≈ 0.863 µM); with E. faecalis 29212 (Enterococcus faecalis, 29212), 3.12 µg/mL (≈ 2.15 µM); in test [2] (Enterococcus faecalis), 1250 µg/mL (≈ 863 µM); in the test with E. faecium 49624 (Enterococcus faecium, 49624), 1.25 µg/mL (≈ 0.863 µM); in the test on E. faecium CL4931 (VanA) (Enterococcus faecium), 1250 µg/mL (≈ 863 µM).

On to moenomycin, for which the MIC against S. aureus 29213 (setting [4]) is 0.05 µg/mL; against E. faecalis 29212 (setting [5]) it was 0.078 µg/mL; in test [2] (setting [6]) it was 0.13 µg/mL; against E. faecium 49624 (setting [7]), >200^c μg/ml; in the test on E. faecium CL4931 (VanA) (setting [8]), 0.25 µg/mL. Moreover, in the test with transglycosylase [3] (UDP-MurNAc-pentapeptide or UDP-MurNAc-tetrapeptide), the “potency in E. coli system relative to that measured in Allen et al. using A. viridens” value is 4 orders of magnitude. Further, in the test on transglycosylase [3] (comparison of the two precursor substrates), the “inhibition of peptidoglycan synthesis, UDP-MurNAc-pentapeptide vs UDP-MurNAc-tetrapeptide” value is recorded as “equipotent inhibition”. In the test on transglycosylase [3], the “inhibition of peptidoglycan formation” value is “sensitive”. At transglycosylase [3] (with vs without Triton X-100 blocker), the “IC50 / effect compared with assay without transglycosylation blocker” value is given as “identical IC50 values; also recorded: substantially the same”. In the test on peptidoglycan synthesis, the “inhibition of peptidoglycan synthesis” value is below 35%.

For the molecule tunicamycin, the “inhibition of peptidoglycan formation” value in the test on transglycosylase [3] was “no measurable effect”; in the test with transglycosylase [3] (listed as tunicamycin), “had no effect”.

The term MIC denotes the least concentration at which growth counts as inhibited. Read a high MIC as weaker potency.
